Laboratory results reported in article PMC9851200, “Multiparameter phenotypic screening for endogenous TFEB and TFE3 translocation identifies novel chemical series modulating lysosome function” (Autophagy, 2022).

Legend:
Format in all cases: binding
[1] = target: kinases (KINOMEscan panel) (Homo sapiens, UniProt P36894); details: kinase BMPR1A; NEW KINOMEscan
[2] = target: T1, kinases (KINOMEscan panel) (Homo sapiens, UniProt O00444); details: kinase PLK4; NEW KINOMEscan
T1 sequence (O00444 1-970): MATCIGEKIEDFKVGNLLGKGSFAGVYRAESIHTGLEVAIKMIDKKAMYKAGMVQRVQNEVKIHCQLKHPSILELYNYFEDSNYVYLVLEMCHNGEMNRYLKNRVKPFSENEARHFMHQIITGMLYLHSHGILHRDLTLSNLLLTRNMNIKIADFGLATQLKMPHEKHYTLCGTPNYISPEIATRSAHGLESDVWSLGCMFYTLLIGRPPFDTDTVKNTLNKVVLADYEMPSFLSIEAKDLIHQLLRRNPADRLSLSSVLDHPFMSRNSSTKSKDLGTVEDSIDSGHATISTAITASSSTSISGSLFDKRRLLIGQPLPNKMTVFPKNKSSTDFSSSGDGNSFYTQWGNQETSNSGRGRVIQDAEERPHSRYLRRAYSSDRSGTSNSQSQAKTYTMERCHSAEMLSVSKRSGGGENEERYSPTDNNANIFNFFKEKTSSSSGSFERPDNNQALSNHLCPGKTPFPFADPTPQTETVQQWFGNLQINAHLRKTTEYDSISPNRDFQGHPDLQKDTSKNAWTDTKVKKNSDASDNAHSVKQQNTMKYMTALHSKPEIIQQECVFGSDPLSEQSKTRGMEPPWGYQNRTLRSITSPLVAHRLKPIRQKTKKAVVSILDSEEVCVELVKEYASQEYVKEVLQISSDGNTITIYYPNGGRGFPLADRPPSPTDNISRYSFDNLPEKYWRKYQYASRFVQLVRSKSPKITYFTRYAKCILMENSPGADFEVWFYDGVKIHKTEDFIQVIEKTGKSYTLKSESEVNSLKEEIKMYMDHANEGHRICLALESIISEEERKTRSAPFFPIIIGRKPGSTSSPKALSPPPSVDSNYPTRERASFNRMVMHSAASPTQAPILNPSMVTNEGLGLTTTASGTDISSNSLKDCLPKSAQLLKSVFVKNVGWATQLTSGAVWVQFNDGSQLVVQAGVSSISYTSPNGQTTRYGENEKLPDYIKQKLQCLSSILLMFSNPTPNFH

[3] = target: T2, kinases (KINOMEscan panel) (Homo sapiens, UniProt Q8N568); details: NEW KINOMEscan
T2 sequence (Q8N568 1-766): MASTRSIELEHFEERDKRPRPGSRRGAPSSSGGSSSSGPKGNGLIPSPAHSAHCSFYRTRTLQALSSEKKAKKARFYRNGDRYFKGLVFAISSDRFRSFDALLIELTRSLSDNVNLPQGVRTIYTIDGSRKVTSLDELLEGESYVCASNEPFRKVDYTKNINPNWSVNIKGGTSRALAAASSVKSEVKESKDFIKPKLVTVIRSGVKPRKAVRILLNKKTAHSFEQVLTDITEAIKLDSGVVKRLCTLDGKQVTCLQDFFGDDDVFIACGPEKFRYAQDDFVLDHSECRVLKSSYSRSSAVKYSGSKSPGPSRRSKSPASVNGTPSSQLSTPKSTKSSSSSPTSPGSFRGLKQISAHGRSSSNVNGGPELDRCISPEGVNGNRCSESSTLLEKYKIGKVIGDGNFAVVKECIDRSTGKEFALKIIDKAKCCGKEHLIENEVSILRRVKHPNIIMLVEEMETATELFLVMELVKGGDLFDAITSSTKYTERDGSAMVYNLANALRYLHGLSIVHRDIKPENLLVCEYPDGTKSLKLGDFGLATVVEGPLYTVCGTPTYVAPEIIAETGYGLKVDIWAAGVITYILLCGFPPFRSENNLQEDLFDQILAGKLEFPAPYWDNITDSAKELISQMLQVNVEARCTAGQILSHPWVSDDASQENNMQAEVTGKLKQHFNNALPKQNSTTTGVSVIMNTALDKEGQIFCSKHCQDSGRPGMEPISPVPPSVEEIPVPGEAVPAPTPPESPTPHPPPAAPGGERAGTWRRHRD

[4] = target: T3, kinases (KINOMEscan panel) (Homo sapiens, UniProt P36888); details: NEW KINOMEscan; for KINOMEscan FLT3-autoinhibited: kinase FLT3-autoinhibited
T3 sequence (P36888 27-993): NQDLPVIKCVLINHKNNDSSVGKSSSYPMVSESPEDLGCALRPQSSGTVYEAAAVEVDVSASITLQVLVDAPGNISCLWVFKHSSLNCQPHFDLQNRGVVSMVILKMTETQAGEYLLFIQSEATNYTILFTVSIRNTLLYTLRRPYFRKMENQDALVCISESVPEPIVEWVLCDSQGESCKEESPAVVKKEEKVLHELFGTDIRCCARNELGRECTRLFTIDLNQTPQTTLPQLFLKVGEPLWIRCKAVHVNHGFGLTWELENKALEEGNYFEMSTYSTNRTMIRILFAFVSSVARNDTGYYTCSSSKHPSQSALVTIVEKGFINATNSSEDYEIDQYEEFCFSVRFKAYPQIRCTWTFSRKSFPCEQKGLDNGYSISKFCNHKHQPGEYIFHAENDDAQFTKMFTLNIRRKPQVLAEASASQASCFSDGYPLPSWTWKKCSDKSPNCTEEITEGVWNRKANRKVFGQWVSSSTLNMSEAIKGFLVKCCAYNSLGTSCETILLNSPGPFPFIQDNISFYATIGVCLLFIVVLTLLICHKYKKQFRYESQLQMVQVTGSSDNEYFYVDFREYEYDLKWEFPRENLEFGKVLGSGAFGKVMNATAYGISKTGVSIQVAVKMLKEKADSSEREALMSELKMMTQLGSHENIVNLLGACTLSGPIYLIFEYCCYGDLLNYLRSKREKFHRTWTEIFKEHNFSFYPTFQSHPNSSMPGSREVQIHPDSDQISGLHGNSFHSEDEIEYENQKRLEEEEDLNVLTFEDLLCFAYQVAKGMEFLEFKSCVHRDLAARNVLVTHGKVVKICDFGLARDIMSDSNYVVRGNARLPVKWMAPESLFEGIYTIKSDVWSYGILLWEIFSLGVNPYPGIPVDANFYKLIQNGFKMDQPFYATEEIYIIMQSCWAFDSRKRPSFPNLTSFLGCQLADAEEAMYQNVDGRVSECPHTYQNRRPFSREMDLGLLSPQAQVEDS

[5] = target: kinases (KINOMEscan panel) (Homo sapiens, UniProt P24723); details: kinase PRKCH; NEW KINOMEscan
[6] = target: kinases (KINOMEscan panel) (Homo sapiens, UniProt Q16539)
Sequence of kinases (KINOMEscan panel) (Homo sapiens, UniProt Q16539) (Q16539 whole entry): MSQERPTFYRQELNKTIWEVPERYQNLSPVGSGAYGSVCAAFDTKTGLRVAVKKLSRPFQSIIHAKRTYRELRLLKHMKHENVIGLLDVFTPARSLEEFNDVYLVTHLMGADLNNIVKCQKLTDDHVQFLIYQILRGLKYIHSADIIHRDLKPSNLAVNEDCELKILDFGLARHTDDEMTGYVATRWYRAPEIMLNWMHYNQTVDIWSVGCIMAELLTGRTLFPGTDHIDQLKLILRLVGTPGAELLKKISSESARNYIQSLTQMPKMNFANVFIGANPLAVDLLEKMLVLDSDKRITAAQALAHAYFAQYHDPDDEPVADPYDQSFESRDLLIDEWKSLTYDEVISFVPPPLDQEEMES

Sequence of kinases (KINOMEscan panel) (Homo sapiens, UniProt P24723) (P24723 whole entry): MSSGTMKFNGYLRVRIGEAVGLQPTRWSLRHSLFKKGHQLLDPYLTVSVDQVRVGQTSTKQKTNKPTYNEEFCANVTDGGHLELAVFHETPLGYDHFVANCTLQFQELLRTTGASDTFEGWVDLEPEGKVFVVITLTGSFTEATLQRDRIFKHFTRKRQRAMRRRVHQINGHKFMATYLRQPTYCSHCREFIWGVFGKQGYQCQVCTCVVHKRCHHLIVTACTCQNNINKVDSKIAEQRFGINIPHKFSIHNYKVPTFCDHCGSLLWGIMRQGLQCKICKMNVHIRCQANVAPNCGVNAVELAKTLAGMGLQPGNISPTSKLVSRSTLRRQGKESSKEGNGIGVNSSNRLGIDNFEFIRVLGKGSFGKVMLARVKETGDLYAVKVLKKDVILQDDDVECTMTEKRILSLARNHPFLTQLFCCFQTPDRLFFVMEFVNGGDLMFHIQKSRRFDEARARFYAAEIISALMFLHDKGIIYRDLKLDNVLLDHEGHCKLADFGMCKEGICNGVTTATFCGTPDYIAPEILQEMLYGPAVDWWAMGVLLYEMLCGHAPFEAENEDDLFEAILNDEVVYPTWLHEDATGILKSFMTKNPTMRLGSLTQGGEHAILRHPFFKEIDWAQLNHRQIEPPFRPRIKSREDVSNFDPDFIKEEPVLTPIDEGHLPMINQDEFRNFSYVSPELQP
Sequence of kinases (KINOMEscan panel) (Homo sapiens, UniProt P36894) (P36894 24-532): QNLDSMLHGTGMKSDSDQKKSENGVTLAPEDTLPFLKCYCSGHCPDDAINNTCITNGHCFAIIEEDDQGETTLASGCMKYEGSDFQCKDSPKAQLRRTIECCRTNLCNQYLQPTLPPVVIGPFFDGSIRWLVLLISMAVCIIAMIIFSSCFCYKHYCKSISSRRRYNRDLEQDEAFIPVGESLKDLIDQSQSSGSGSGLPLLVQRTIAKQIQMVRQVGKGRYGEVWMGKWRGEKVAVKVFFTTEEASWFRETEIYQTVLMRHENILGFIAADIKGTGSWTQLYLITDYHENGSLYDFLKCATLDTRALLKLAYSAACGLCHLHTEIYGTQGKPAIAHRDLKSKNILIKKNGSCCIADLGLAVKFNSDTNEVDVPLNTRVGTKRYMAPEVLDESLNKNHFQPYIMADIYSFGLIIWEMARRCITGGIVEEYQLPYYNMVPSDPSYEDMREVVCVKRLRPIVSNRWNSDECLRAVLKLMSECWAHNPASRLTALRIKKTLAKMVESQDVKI

Structure (SMILES)	KINOMEscan BMPR1A [1]	KINOMEscan PLK4 [2]	KINOMEscan DCLK2 [3]	KINOMEscan FLT3 [4]	KINOMEscan FLT3-autoinhibited [4]	KINOMEscan PRKCH [5]	KINOMEscan MAPK14/p38-alpha [6]
Cc1cccc(-c2nc(Nc3ccc4nn(C)cc4c3)c3ccccc3n2)n1 [NK167]	13	0	11	0	0	21	5
Cc1cccc(-c2nc(N(C)c3ccc4ncsc4c3)c3ccccc3n2)n1 [NK-161]	4	3	25	0	0	8	8
